Columns and labels:
hES cells [1] = experiment: Cell adhesion assay, 1 hour (Example 2); assay type: cell-based, human; settings: not shown
Procedure: Tissue cell culture plates were coated overnight at 4° C. with sterile solutions of the ECM proteins, such as human recombinant LN-521, all at a concentration of 30 μg/ml (5 μg/cm^2). Control plates were coated with Matrigel according to the STEMCELL Technologies' instructions. Prior to use, dishes were pre-warmed in an incubator for one hour after which prewarmed O3 medium was added without additional washing of the dish. After applying a fresh LN-521 solution to a new dish, the remaining LN-521 solution could be used at least once more. All the adhesion, survival, and inhibition of survival experiments were carried out using fresh coating materials.
Briefly, 96-well plates were coated by extracellular matrix proteins as described above and blocked by O3 medium containing bovine serum albumin. The ES cells were plated at cell density of 50,000 cells/cm^2 onto extracellular matrix-coated plates and left to adhere for 1 hour in a cell incubator. After that the plates were washed 3 times with the medium to remove the non-adherent cells, and then the adherent cells were fixed for 20 minutes by 5% glutaraldehyde, stained by 0.1% Crystal Violet. (Kebo Lab, Spanga, Sweden, http://www.kebolab.se). After one hour and 3 washes with water, Crystal Violet was extracted with 10% acetic acid and quantified by measuring optical density at 570 nm. All the experiments were performed in quadruplicate.

[2] = system: Oct4, Nanog, SSEA4, PAX6, SOX17, SOX7; experiment: Expression of pluripotency and differentiation markers (immunofluorescence, RT-PCR, FACS); assay type: cell-based, human; settings: similar to cells on Matrigel passed as small clumps
Procedure: For immunofluorescence studies, ES cells were cultured and fixed in 8-well slide chambers (BD Biosciences) or 96-well plate wells by 4% paraformaldehyde, permeabilized by 0.1% Triton-X and blocked by 10% bovine fetal serum (GIBCO Invitrogen Corporation) in phosphate-saline buffer (PBS) containing 0.1% Tween-20 (Sigma-Aldrich, St. Louis, http://www.sigmaaldrich.com) for one hour. Incubation with primary antibody was performed for 1.5 hours at room temperature. Incubation with secondary antibody and 4,6-diamidino-2-phenylindole (DAPI, Molecular Probes) was performed for 40 minutes. Between incubations, the specimens were washed with 0.1% Tween-20 in PBS buffer three to five times. Specimens were preserved in a fluorescence mounting medium (Dako, Glostrup, Denmark, http://www.dako.com), and observed under a fluorescence microscope (Leica, Heerbrugg, Switzerland, http://www.leica.com).
Total RNA was isolated using Absolutely RNA Microprep Kit (Stratagene, La Jolla Calif., www.stratagene.com) according to the manufacturer's instructions. cDNA was synthesized using 0.2 μg of total RNA in 20 μl reaction mixture, containing oligo(dT)12-18 primers and Superscript II reverse transcriptase (GIBCO Invitrogen Corporation), according to the manufacturer's instructions. […] All data was analyzed with 7300 System SDS Software v 1.4. […]

hES cells [3] = experiment: In vivo imaging and migration assay; assay type: cell-based, human
Procedure: 24-well plates were coated by extracellular matrix proteins and blocked by O3 medium containing bovine serum albumin. The ES cells were plated at cell density of 30,000-40,000 cells/cm^2 onto extracellular matrix-coated plates and left to adhere for half an hour in a cell incubator. After that, the plate was transferred into high content imaging system Operetta (PerkinElmer) equipped with environmental control unit, which allowed to keep 37° C., 5% CO2. For two movies that were made, the brightfield images were taken once in 15 minutes during 24 hours after plating using Harmony software (PerkinElmer), exported, and analyzed using ImageJ software (NIH, the US). For migration assay the images were taken every seven minutes during 18 hours after plating. Images acquired between the fifth and seventh hours after plating were analyzed using MTrackJ plug-in (University Medical Center, Rotterdam, The Netherlands). 100 attached cells on each coating were traced and mean distances from the current to the previous point of the track were calculated. Error bars show standard error of the mean s.e.m. (n=100).

hES cells [4] = experiment: Clonal survival of individualized hES cells (Example 4); assay type: cell-based, human; settings: mTeSR1 medium, 250 cells per cm^2, 5 days, alkaline phosphatase staining
Procedure: hES cells were plated in mTeSR1 medium on different coatings at a density of 250 cells per cm^2 and monitored after 5 days in culture using an alkaline phosphatase staining kit.
Next, combinations of laminin-521 and E-Cadherin were tested to determine whether the combinations could sustain clonal survival of the cells. Fixed amounts of laminin-521 were used for the cell culture dish coating in combination with titrated E-Cadherin.
Additional tests were performed to test the effects of various modifications to the mTeSR1 medium. A mixture of E-Cadherin to laminin-521 in a ratio of about 1:10 w/w was used to coat the plates. […] Time-lapse photography of the cells confirmed that laminin-521/E-Cadherin coatings facilitated cell survival through proliferation of the single cells, not through the aggregation of different cells.

Integrin α6β1 = Integrin α6β1 (Homo sapiens, UniProt P05556+P23229); settings: cited from earlier work
Chain of Integrin α6β1 (P23229 24-1130): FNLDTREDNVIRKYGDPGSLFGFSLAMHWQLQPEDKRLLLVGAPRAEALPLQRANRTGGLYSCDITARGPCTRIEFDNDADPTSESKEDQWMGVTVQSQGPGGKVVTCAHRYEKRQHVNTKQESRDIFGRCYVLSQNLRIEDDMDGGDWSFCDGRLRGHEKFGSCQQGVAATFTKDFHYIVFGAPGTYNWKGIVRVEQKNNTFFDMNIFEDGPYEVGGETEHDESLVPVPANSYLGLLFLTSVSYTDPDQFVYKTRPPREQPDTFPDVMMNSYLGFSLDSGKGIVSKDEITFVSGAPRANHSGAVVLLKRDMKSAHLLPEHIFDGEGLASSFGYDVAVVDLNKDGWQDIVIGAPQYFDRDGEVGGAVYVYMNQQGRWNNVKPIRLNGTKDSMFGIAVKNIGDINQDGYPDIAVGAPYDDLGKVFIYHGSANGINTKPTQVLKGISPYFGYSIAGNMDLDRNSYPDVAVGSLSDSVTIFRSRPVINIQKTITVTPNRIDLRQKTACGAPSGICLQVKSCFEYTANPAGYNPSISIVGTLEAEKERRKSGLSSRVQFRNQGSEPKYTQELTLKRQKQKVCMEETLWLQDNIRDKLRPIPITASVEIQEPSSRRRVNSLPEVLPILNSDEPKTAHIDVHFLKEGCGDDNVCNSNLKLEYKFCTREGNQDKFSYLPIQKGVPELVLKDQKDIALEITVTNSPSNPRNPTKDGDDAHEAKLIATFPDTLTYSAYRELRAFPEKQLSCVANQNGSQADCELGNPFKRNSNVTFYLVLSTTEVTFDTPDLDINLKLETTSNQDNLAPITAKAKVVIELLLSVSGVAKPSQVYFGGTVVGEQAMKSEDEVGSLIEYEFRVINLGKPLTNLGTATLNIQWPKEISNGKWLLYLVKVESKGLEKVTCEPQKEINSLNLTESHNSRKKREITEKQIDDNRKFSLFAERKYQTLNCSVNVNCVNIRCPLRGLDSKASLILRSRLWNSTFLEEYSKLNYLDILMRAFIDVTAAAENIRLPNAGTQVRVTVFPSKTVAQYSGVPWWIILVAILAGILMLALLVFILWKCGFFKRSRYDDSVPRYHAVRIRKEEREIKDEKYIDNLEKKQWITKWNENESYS
Chain of Integrin α6β1 (P05556 21-798): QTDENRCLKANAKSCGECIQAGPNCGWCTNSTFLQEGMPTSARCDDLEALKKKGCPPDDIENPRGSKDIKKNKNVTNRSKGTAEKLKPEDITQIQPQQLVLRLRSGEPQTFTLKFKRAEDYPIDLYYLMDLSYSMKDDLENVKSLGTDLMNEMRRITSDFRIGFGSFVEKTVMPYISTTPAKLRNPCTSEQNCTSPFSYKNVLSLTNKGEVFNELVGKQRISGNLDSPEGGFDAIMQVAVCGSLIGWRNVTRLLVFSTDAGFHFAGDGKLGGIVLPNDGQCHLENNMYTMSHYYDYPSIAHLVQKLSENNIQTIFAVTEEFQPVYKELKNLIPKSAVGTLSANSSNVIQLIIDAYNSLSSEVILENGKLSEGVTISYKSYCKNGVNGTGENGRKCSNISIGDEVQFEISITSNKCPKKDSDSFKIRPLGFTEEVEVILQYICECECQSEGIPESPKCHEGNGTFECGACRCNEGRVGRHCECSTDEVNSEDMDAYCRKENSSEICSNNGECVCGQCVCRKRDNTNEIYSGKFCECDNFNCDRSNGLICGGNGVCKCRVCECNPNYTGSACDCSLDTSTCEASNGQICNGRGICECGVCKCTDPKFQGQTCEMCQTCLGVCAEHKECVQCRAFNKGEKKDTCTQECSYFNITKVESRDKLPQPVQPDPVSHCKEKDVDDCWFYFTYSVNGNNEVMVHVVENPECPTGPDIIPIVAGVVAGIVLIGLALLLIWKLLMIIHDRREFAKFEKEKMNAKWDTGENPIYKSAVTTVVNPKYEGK

LN-521: protein formed by joining α5, β2 and γ1 laminin chains; human recombinant, produced in HEK293 cells
spreading of the cells after one hour compared with Matrigel or LN-111 (hES cells [1]): clearly better
expression of pluripotency markers Oct4, Nanog, and SSEA4 [2]: stable expression levels
motility of hES cells compared with other coatings (hES cells [3]; between the fifth and seventh hours after plating): higher
migration of cells compared with Matrigel (imaging) (hES cells [3]; in vivo imaging): much faster
clonal survival of individualized hES cells (hES cells [4]): Neither laminin-521 nor E-Cadherin alone permitted efficient clonal survival
binding affinity of integrin α6β1 compared with LN-111 (Integrin α6β1): higher

— US10138292B2, “Cell culture medium” (BIOLAMINA AB, priority 2010, dated 2018)
